# Data reported in patent publication US8927498B2, “Compositions and methods useful in enhancement of memory” (The Translational Genomics Research Institute, priority 2010, dated 2015).
# Tests used:
# Type in all cases: in vivo, rat
# [1] = tested on: hippocampal expression of candidate genes; assay: hippocampal expression of candidate genes, Illumina RatRef-12 expression BeadChip
# Source text: (§1) Following sacrifice, the left hippocampus was utilized for genome-wide expression profiling. […] These included Adcyap1 with fold change (FC) of 1.5, and p=0.029, Tiam1 with FC of −1.5 and p=0.028, and Filip1 with FC of −1.75 and p=0.032 (Table 1). The RT-PCR validation of the fold change of FILIP1 and Tiam1 is shown in Table 2 and Table 3, respectively.
# [2] = tested on: hippocampal transcripts (mitochondrial pathway genes and genes associated with neurological function); assay: transcriptome examination using RNA-Seq, hippocampus
# Source text: Transcriptome Examination Using RNA-Seq Upon MARCKS Peptide Decoy Treatment
# as §1
# Table 4 disclosed herein provides the major pathways in mitochondria altered in the MARCKS peptide decoy treated animals. Mitochondrial NADH dehydrogenase is a key enzyme in the oxidative phosphorylation pathway in the mitochondria. Mitochondrially encoded cytochrome c oxidase I (MT-CO1), also known as cytochrome c oxidase I (COX1), is a protein that is found in mitochondria. Cytochrome c oxidase is the component of the respiratory chain that catalyzes the reduction of oxygen to water. MT-CO1 is associated with aging. Mutations in the human MT-CO1 gene have been associated with several diseases, including neurodegenerative diseases, such as late-onset Alzheimer disease. Cytochrome b (mt-cyb) is a component of the ubiquinol-cytochrome c reductase complex (complex III or cytochrome b-c1 complex), which is a respiratory chain that generates an electrochemical potential coupled to ATP synthesis. ATP synthase F0 subunit 6 (or subunit/chain A) is a subunit of F0 complex of transmembrane F-type ATP synthase. This subunit is a key component of the proton channel, and may play a direct role in the translocation of protons across the membrane. ATP6 is a gene associated with neuropathy, ataxia, and retinitis pigmentosa. mt-ATP8 is another subunit involved in ATP biosynthetic process.
# Table 5 provides the list of the genes that are directly or indirectly associated with neurological function and are with significant fold change in peptide decoy treated animals in comparison to the controls.
# FILIP1 = assay: RT-PCR validation of FILIP1 (normalized to GAPDH); conditions: n = 9; vehicle 1.28
# Source text: as §1
# [3] = hippocampus, treated vs. vehicle rats, Mann-Whitney
# [4] = hippocampus, treated vs. vehicle rats, T-Test
# [5] = left hippocampus, genome-wide expression profiling
# [6] = locus chrM: 9450-9798, vehicle 617.42
substance,measurement,setting,value
SEQ ID NO: 1: fusion peptide including a TAT protein transduction domain and residues surrounding two known serine phosphorylation targets (Ser159 and Ser163) within MARCKS (YGRKKRRQRRRCKRFSFKKSFKLSGFSFKK; TAT MARCKS fusion),Fold Change Filip1,[1]; [3],−1.747
same,Fold Change Gna1,[1]; [3],−1.534
same,Fold Change Ptpro,[1]; [3],−1.708
same,Fold Change Tiam1,[1]; [3],−1.510
same,Fold Change Tp53i11_predicted,[1]; [3],−1.581
same,Fold Change Adcyap1,[1]; [4],1.554
same,Fold Change Filip1,[1]; [4],−1.747
same,Fold Change LOC501145,[1]; [4],1.566
same,Fold Change Perp_predicted,[1]; [4],−1.647
same,Fold Change Tiam1,[1]; [4],−1.499
same,Fold Change Tp53i11_predicted,[1]; [4],−1.554
same,fold change (FC) Adcyap1,[1]; [5],1.5
same,fold change (FC) Filip1,[1]; [5],−1.75
same,fold change (FC) Tiam1,[1]; [5],−1.5
same,"Ln (Fold Change) (M/V), Calm3",[2]; locus chr1: 77244168-77252808,1.894
same,"MARCKS FPKM, Calm3","[2]; locus chr1: 77244168-77252808, vehicle 856.54",1621.94 FPKM
same,"Ln (Fold Change) (M/V), Fth1",[2]; locus chr1: 212430422-212432741,1.397
same,"MARCKS FPKM, Fth1","[2]; locus chr1: 212430422-212432741, vehicle 354.58",495.44 FPKM
same,"Ln (Fold Change) (M/V), P97600_RAT",[2]; locus chr1: 249369571-249369889,0.7544
same,"MARCKS FPKM, P97600_RAT","[2]; locus chr1: 249369571-249369889, vehicle 492.68",371.65 FPKM
same,"Ln (Fold Change) (M/V), Selt",[2]; locus chr2: 147913244-147929296,0.5377
same,"MARCKS FPKM, Selt","[2]; locus chr2: 147913244-147929296, vehicle 214.44",115.30 FPKM
same,"Ln (Fold Change) (M/V), Snap25",[2]; locus chr3: 124860288-124894636,0.8176
same,"MARCKS FPKM, Snap25","[2]; locus chr3: 124860288-124894636, vehicle 750.47",613.59 FPKM
same,"Ln (Fold Change) (M/V), Ywhab",[2]; locus chr3: 154926026-155140469,0.5137
same,"MARCKS FPKM, Ywhab","[2]; locus chr3: 154926026-155140469, vehicle 131.57",67.59 FPKM
same,"Ln (Fold Change) (M/V), Sdcbp",[2]; locus chr5: 19822457-19849209,0.666
same,"MARCKS FPKM, Sdcbp","[2]; locus chr5: 19822457-19849209, vehicle 131.61",87.65 FPKM
same,"Ln (Fold Change) (M/V), Rraga",[2]; locus chr5: 105659673-105661250,0.4798
same,"MARCKS FPKM, Rraga","[2]; locus chr5: 105659673-105661250, vehicle 433.02",207.77 FPKM
same,"Ln (Fold Change) (M/V), HPCA_RAT",[2]; locus chr5: 148268061-148276223,2.229
same,"MARCKS FPKM, HPCA_RAT","[2]; locus chr5: 148268061-148276223, vehicle 141.44",315.32 FPKM
same,"Ln (Fold Change) (M/V), RTN1_RAT",[2]; locus chr6: 94397064-94426283,1.726
same,"MARCKS FPKM, RTN1_RAT","[2]; locus chr6: 94397064-94426283, vehicle 842.08",1453.43 FPKM
same,"Ln (Fold Change) (M/V), Tuba1b",[2]; locus chr7: 137706855-137709839,0.5387
same,"MARCKS FPKM, Tuba1b","[2]; locus chr7: 137706855-137709839, vehicle 219.23",118.09 FPKM
same,"Ln (Fold Change) (M/V), Ywhae",[2]; locus chr10: 63072127-63109833,0.6546
same,"MARCKS FPKM, Ywhae","[2]; locus chr10: 63072127-63109833, vehicle 892.66",584.35 FPKM
same,"Ln (Fold Change) (M/V), Aldoc",[2]; locus chr10: 64308825-64312415,0.5322
same,"MARCKS FPKM, Aldoc","[2]; locus chr10: 64308825-64312415, vehicle 140.11",74.57 FPKM
same,"Ln (Fold Change) (M/V), Ndrg2",[2]; locus chr15: 27338551-27347196,0.4224
same,"MARCKS FPKM, Ndrg2","[2]; locus chr15: 27338551-27347196, vehicle 142.86",60.35 FPKM
same,"Ln (Fold Change) (M/V), Calm-ps2",[2]; locus chr15: 64161641-64162753,0.7792
same,"MARCKS FPKM, Calm-ps2","[2]; locus chr15: 64161641-64162753, vehicle 383.97",299.19 FPKM
same,"Ln (Fold Change) (M/V), Gpm6a",[2]; locus chr16: 39670749-39783384,0.5709
same,"MARCKS FPKM, Gpm6a","[2]; locus chr16: 39670749-39783384, vehicle 311.49",177.84 FPKM
same,"Ln (Fold Change) (M/V), Slc25a4",[2]; locus chr16: 49353475-49357271,1.571
same,"MARCKS FPKM, Slc25a4","[2]; locus chr16: 49353475-49357271, vehicle 243.91",383.20 FPKM
same,"Ln (Fold Change) (M/V), Mt3",[2]; locus chr19: 11284554-11286402,1.316
same,"MARCKS FPKM, Mt3","[2]; locus chr19: 11284554-11286402, vehicle 301.07",396.12 FPKM
same,"Ln (Fold Change) (M/V), Non-Annotated",[2]; locus chrM: 67-1025,0.8288
same,"MARCKS FPKM, Non-Annotated","[2]; locus chrM: 67-1025, vehicle 69491.10",57596.80 FPKM
same,"Ln (Fold Change) (M/V), Non-Annotated",[2]; locus chrM: 1093-2664,0.6921
same,"MARCKS FPKM, Non-Annotated","[2]; locus chrM: 1093-2664, vehicle 53178.50",36802.40 FPKM
same,"Ln (Fold Change) (M/V), Mitochondrial NADH dehydrogenase subunit 1 mt-nd1",[2]; locus chrM: 2739-3831,0.7838
same,"MARCKS FPKM, Non-Annotated","[2]; locus chrM: 2739-3831, vehicle 51.90",0.00 FPKM
same,"MARCKS FPKM, Non-Annotated","[2]; locus chrM: 2739-3831, vehicle 126.72",0.00 FPKM
same,"MARCKS FPKM, Mitochondrial NADH dehydrogenase subunit 1 mt-nd1","[2]; locus chrM: 2739-3831, vehicle 1879.89",1473.47 FPKM
same,"Ln (Fold Change) (M/V), Non-Annotated","[2]; locus chrM: 2739-3831, vehicle FPKM 51.90",0
same,"Ln (Fold Change) (M/V), Non-Annotated","[2]; locus chrM: 2739-3831, vehicle FPKM 126.72",0
same,"Ln (Fold Change) (M/V), Mitochondrial NADH dehydrogenase subunit 2 mt-nd2",[2]; locus chrM: 3903-5008,0.5713
same,"MARCKS FPKM, Mitochondrial NADH dehydrogenase subunit 2 mt-nd2","[2]; locus chrM: 3903-5008, vehicle 1965.45",1122.94 FPKM
same,"Ln (Fold Change) (M/V), Cytochrome c oxidase subunit I mt-co1",[2]; locus chrM: 5322-6933,0.7397
same,"Ln (Fold Change) (M/V), Non-Annotated",[2]; locus chrM: 5322-6933,0
same,"MARCKS FPKM, Non-Annotated","[2]; locus chrM: 5322-6933, vehicle 321.91",0.00 FPKM
same,"MARCKS FPKM, Cytochrome c oxidase subunit I mt-co1","[2]; locus chrM: 5322-6933, vehicle 9734.89",7200.89 FPKM
same,"Ln (Fold Change) (M/V), Cytochrome c oxidase subunit 2 mt-co2",[2]; locus chrM: 7005-7689,0.6512
same,"MARCKS FPKM, Cytochrome c oxidase subunit 2 mt-co2","[2]; locus chrM: 7005-7689, vehicle 5773.44",3759.79 FPKM
same,"Ln (Fold Change) (M/V), ATP synthase F0 subunit 6 mt-ATP6",[2]; locus chrM: 7757-9382,0.5529
same,"Ln (Fold Change) (M/V), ATP synthase F0 subunit 8 mt-ATP8",[2]; locus chrM: 7757-9382,0.7137
same,"Ln (Fold Change) (M/V), Cytochrome c oxidase subunit 3 mt-co3",[2]; locus chrM: 7757-9382,0.5326
same,"MARCKS FPKM, ATP synthase F0 subunit 6 mt-ATP6","[2]; locus chrM: 7757-9382, vehicle 3257.55",1801.13 FPKM
same,"MARCKS FPKM, ATP synthase F0 subunit 8 mt-ATP8","[2]; locus chrM: 7757-9382, vehicle 3627.88",2589.08 FPKM
same,"MARCKS FPKM, Cytochrome c oxidase subunit 3 mt-co3","[2]; locus chrM: 7757-9382, vehicle 5137.18",2736.25 FPKM
same,"Ln (Fold Change) (M/V), Mitochondrial NADH dehydrogenase subunit 3 mt-nd3",[2]; locus chrM: 9450-9798,0.5255
same,"Ln (Fold Change) (M/V), NU3M_RAT",[2]; locus chrM: 9450-9798,0.5255
same,"MARCKS FPKM, Mitochondrial NADH dehydrogenase subunit 3 mt-nd3",[2]; [6],324.46 FPKM
same,"MARCKS FPKM, NU3M_RAT",[2]; [6],324.46 FPKM
same,"Ln (Fold Change) (M/V), Mitochondrial NADH dehydrogenase subunit 4 mt-nd4",[2]; locus chrM: 9869-11537,0.6903
same,"Ln (Fold Change) (M/V), NADH dehydrogenase subunit 4L mt-ND4L",[2]; locus chrM: 9869-11537,0.7182
same,"MARCKS FPKM, Mitochondrial NADH dehydrogenase subunit 4 mt-nd4","[2]; locus chrM: 9869-11537, vehicle 2440.82",1684.95 FPKM
same,"MARCKS FPKM, NADH dehydrogenase subunit 4L mt-ND4L","[2]; locus chrM: 9869-11537, vehicle 5804.14",4168.41 FPKM
same,"Ln (Fold Change) (M/V), Mitochondrial NADH dehydrogenase subunit 5 mt-nd5",[2]; locus chrM: 11735-14061,0.8563
same,"Ln (Fold Change) (M/V), Mitochondrial NADH dehydrogenase subunit 6 mt-nd6",[2]; locus chrM: 11735-14061,0.4947
same,"MARCKS FPKM, Mitochondrial NADH dehydrogenase subunit 6 mt-nd6","[2]; locus chrM: 11735-14061, vehicle 1073.10",530.91 FPKM
same,"MARCKS FPKM, Mitochondrial NADH dehydrogenase subunit 5 mt-nd5","[2]; locus chrM: 11735-14061, vehicle 2920.80",2501.19 FPKM
same,"Ln (Fold Change) (M/V), Cytochrome b (mt-cyb)",[2]; locus chrM: 14135-15278,0.7536
same,"MARCKS FPKM, Cytochrome b (mt-cyb)","[2]; locus chrM: 14135-15278, vehicle 2792.49",2104.37 FPKM
same,"Ln (Fold Change) (M/V), Gdi1",[2]; locus chrX: 160299116-160305777,0.6667
same,"MARCKS FPKM, Gdi1","[2]; locus chrX: 160299116-160305777, vehicle 124.22",82.82 FPKM
same,RT-PCR FILIP1 Average (normalized to GAPDH),FILIP1,1.20
